Test results as given in patent US20050090529A1, “3,5 Disubstituted indazole compounds with nitrogen-bearing 5-membered heterocycles, pharmaceutical compositions, and methods for mediating or inhibiting cell proliferation” (PFIZER INC, priority 2003, published 2005).

The molecules below were run on Cyclin-dependent kinase (assay: Cyclin-dependent kinase inhibition, % inhibition at 10 nM (library Examples 99-270)). Settings: 10 nM compound.
Format: biochemical
Protocol: Cyclin-dependent kinase activity was measured by quantifying the enzyme-catalyzed, time-dependent incorporation of radioactive phosphate from [^32P]ATP or [^33P]ATP into a protein substrate. Unless noted otherwise, assays were performed in 96-well plates in a total volume of 50 μL, in the presence of 10 mM HEPES (N-[2-hydroxyethyl]piperazine-N′-[2-ethanesulfonic acid]) (pH 7.4), 10 mM MgCl2, 25 μM adenosine triphosphate (ATP), 1 mg/mL ovalbumin, 5 μg/mL leupeptin, 1 mM dithiothreitol, 10 mM beta-glycerophosphate, 0.1 mM sodium vanadate, 1 mM sodium fluoride, 2.5 mM ethylene glycol-bis(β-aminoethyl ethKer)-N,N,N′N′-tetraacetic acid (EGTA), 2% (v/v) dimethylsulfoxide, and 0.03-0.4 μCi [^32/33P]ATP per reaction. Reactions were initiated with enzyme, incubated at 30° C., and terminated after 20 minutes by the addition of ethylenediaminetetraacetic acid (EDTA) to 250 mM. The phosphorylated substrate was then captured on a nitrocellulose or phosphocellulose membrane using a 96-well filtration manifold, and unincorporated radioactivity was removed by repeated washing with 0.85% phosphoric acid. Radioactivity was quantified by exposing the dried membranes to a phosphorimager.
Results of assays performed on compounds, which include the specific examples described above are provided in Examples 99-274 above, and in Table 1 below. Unless indicated otherwise in a particular entry, the units and assays used are as indicated in the applicable column of the table.

% Inhib @ 10 nM [%]	SMILES
48	CCNCc1cncc(-c2ccc3[nH]nc(-c4ncc(C(=O)NC(Cc5cc(C)no5)C5CC5)[nH]4)c3c2)c1C (stereo not shown) [Example 160, N-[1-cyclopropyl-2-(3-methylisoxazol-5-yl)ethyl]-2-(5-{5-[(ethylamino)methyl]-4-methylpyridin-3-yl}-1H-indazol-3-yl)-1H-imidazole-5-carboxamide]
48	CCNCc1cncc(-c2ccc3[nH]nc(-c4ncc(C(=O)NCCc5c[nH]cn5)[nH]4)c3c2)c1C [Example 161, 2-(5-{5-[(ethylamino)methyl]-4-methylpyridin-3yl-1H-indazol-3yl)-N-2-(1H-imidazol-4-yl)ethyl]-1H-imidazole-5-carboxamide]
81	CCNCc1cncc(-c2ccc3[nH]nc(-c4ncc(C(=O)N[C@H]5CCc6ccccc65)[nH]4)c3c2)c1C [Example 162]
60	CCNCc1cncc(-c2ccc3[nH]nc(-c4ncc(C(=O)N5CCSCC5)[nH]4)c3c2)c1C [Example 163, ethyl[(4-methyl-5-{3-[5-(thiomorpholin-4-ylcarbonyl)-1H-imidazol-2-yl]-1H-indazol-5-yl}pyridin-3-yl)methyl]amine]
69	CCCCN(CCC#N)C(=O)c1cnc(-c2n[nH]c3ccc(-c4cncc(CNCC)c4C)cc23)[nH]1 [Example 164, N-butyl-N-(2-cyanoethyl)-2-(5-{5-[(ethylamino)methyl]4-methylpyridin-3-yl}-1H-indazol-3-yl)-1H-imidaole-5-carboxamide]
37	CCNCc1cncc(-c2ccc3[nH]nc(-c4ncc(C(=O)N(C)CCc5ccc(OC)c(OC)c5)[nH]4)c3c2)c1C [Example 165, N-[2-(3,4-dimethoxyphenyl)ethyl]-2-(5-{5-[(ethylamino)methyl]-4-methylpyridin-3-yl}-1H-indazol-3-yl)-N-methyl-1H-imidazole-5-carboxamide]
73	CCNCc1cncc(-c2ccc3[nH]nc(-c4ncc(C(=O)NCC5CCCCC5)[nH]4)c3c2)c1C [Example 166, N-(cyclohexylmethyl)-2-(5-{5-[(ethylamino)methyl]-4-methylpyridin-3-yl}-1H-indazol-3-yl)-1H-imidazole-5-carboxamide]
28	CCNCc1cncc(-c2ccc3[nH]nc(-c4ncc(C(=O)NCCc5cc(OC)c(O)c(OC)c5)[nH]4)c3c2)c1C [Example 167]
37	CCNCc1cncc(-c2ccc3[nH]nc(-c4ncc(C(=O)N5CCN(CCOC)CC5)[nH]4)c3c2)c1C [Example 169, ethyl({5-[3-(5-{[4-(2-methoxyethyl)piperazin-1-yl]carbonyl}-1H-imidazol-2-yl)-1H-indazol-5-yl]-4-methylpyridin-3-yl}methyl)amine]
29	CCNCc1cncc(-c2ccc3[nH]nc(-c4ncc(C(=O)N5CCC(CNC(=O)C(F)(F)F)CC5)[nH]4)c3c2)c1C [Example 170, N-[(1-{[2-(5-{5-[(ethylamino)methyl]-4-methylpyridin-3yl}-1H-indazol-3-yl)-1H-imidazol-5-yl]carbonyl}piperidin-4-yl)methyl]-2,2,2-trifluoroacetamide]
65	CCNCc1cncc(-c2ccc3[nH]nc(-c4ncc(C(=O)N5CCC(C(=O)c6ccccc6)CC5)[nH]4)c3c2)c1C [Example 171, (1-{[2-(5-{5[(ethylamino)methyl]-4-methylpyridin-3-yl}-1H-indazol-3-yl)-1H-imidazol-5-yl]carbonyl}piperidin-4-yl)(phenyl)methanone]
36	CCNCc1cncc(-c2ccc3[nH]nc(-c4ncc(C(=O)NC(CO)CCSC)[nH]4)c3c2)c1C (stereo not shown) [Example 172]
45	CCNCc1cncc(-c2ccc3[nH]nc(-c4ncc(C(=O)N[C@H](CO)Cc5ccc(O)cc5)[nH]4)c3c2)c1C [Example 173]
41	CCNCc1cncc(-c2ccc3[nH]nc(-c4ncc(C(=O)NCCCSC)[nH]4)c3c2)c1C [Example 174, 2-(5-{5-[(ethylamino)methyl]-4-methylpyridin-3-yl}-1H-indazol-3-yl)-N-[3-(methylthio)propyl]1H-imidazole-5-carboxamide]
68	CCNCc1cncc(-c2ccc3[nH]nc(-c4ncc(C(=O)N(CC)CCOC)[nH]4)c3c2)c1C [Example 175, N-ethyl-2-(5-{5-[(ethylamino)methyl]-4-methylpyridin-3-yl}-1H-indazol-3-yl)-N-(2-methoxyethyl)-1H-imidazole-5-carboxamide]
59	CCNCc1cncc(-c2ccc3[nH]nc(-c4ncc(C(=O)N[C@H](C(=O)NC)[C@@H](C)O)[nH]4)c3c2)c1C [Example 176, 2-(5-{5-[(ethylamino)methyl]-4-methylpyridin-3-yl}-1H-indazol-3-yl)-N-{(1S,2R)-2-hydroxy-1-[(methylamino)carbonyl]propyl}-1H-imidazole-5-carboxamide]
63	CCNCc1cncc(-c2ccc3[nH]nc(-c4ncc(C(=O)N5CCC(CO)CC5)[nH]4)c3c2)c1C [Example 177, (1-{[2-(5-{5-[(ethylamino)methyl]-4-methylpyridin-3-yl}-1H-indazol-3-yl)-1H-imidazol-5-yl]carbonyl}piperidin-4-yl)methanol]
73	CCNCc1cncc(-c2ccc3[nH]nc(-c4ncc(C(=O)N(C)CC)[nH]4)c3c2)c1C [Example 178, N-ethyl-2-(5-{5-[(ethylamino)methyl]-4-methylpyridin-3-yl}-1H-indazol-3-yl)-N-methyl-1H-imidazole-5-carboxamrde]
53	CCNCc1cncc(-c2ccc3[nH]nc(-c4ncc(C(=O)N5CCCN(C(C)=O)CC5)[nH]4)c3c2)c1C [Example 179, {[5-(3-(5-[(4-acetyl-1,4-diazepan-1-yl)carbonyl]-1H-imidazol-2-yl]-1H-indazol-5-yl)-4-methylpyridin-3-yl]methyl}ethylamine]
22	CCNCc1cncc(-c2ccc3[nH]nc(-c4ncc(C(=O)N5CCN(CCCN6CCOCC6)CC5)[nH]4)c3c2)c1C [Example 180]
57	CCNCc1cncc(-c2ccc3[nH]nc(-c4ncc(C(=O)N5CCN(Cc6ccc(OC)cc6)CC5)[nH]4)c3c2)c1C [Example 181, ethyl({5-[3-(5-{[4-(4-methoxybenzyl)piperazin-1-yl]carbonyl}1H-imidazol-2-yl)-1H-indazol-5-yl]-4-methylpyridin-3-yl}methyl)amine]
40	CCNCc1cncc(-c2ccc3[nH]nc(-c4ncc(C(=O)N5CCN(CC(=O)N(C)C)CC5)[nH]4)c3c2)c1C [Example 182]
42	CCNCc1cncc(-c2ccc3[nH]nc(-c4ncc(C(=O)N5CCCC(c6nc7ccccc7[nH]6)C5)[nH]4)c3c2)c1C (stereo not shown) [Example 183, ({5-[3-(5-{[3-(1H-benzimidazol-2-yl)piperidin-1-yl]carbonyl}-1H-imidazol-2-yl)-1H-indazol-5-yl]-4-methylpyridin-3-yl}methyl)ethylamine]
21	CCNCc1cncc(-c2ccc3[nH]nc(-c4ncc(C(=O)NCC5CCNCC5)[nH]4)c3c2)c1C [Example 184]
52	CCNCc1cncc(-c2ccc3[nH]nc(-c4ncc(C(=O)N[C@@H](CO)Cc5c[nH]c6ccccc56)[nH]4)c3c2)c1C [Example 185, 2-(5-{5-[(ethylamino)methyl]-4-methylpyridin-3-yl}-1H-indazol-3-yl)-N-[(1R)-2-hydroxy-1-(1H-indol-3-ylmethyl)ethyl]-1H-imidazole-5-carboxamide]
